Test results published in the kinase profiling compilation of Christmann-Franck et al. (2016).
Several values for one entry are separate records, joined by “and”; a condition that tells them apart may be missing. Equal values may be shown once.

Assays:
Experiment in all cases: radiometric filter-binding kinase assay, Kinase HotSpot
Details in all cases: compound 0.5 µM; ATP 10 µM
[1] = target: INSR (human) (UniProt P06213)
[2] = target: FLT1 (human) (UniProt P17948)
[3] = target: EPHA3 (human) (UniProt P29320)
[4] = target: RPS6KA2 KD1 KD2 (human) (UniProt Q15349)
[5] = target: FGR (human) (UniProt P09769)
[6] = target: DYRK1B (human) (UniProt Q9Y463)
[7] = target: PRKG1 (human) (UniProt Q13976)
[8] = target: AURKC (human) (UniProt Q9UQB9)
Sequence of AURKC (human) (Q9UQB9 whole entry, looked up): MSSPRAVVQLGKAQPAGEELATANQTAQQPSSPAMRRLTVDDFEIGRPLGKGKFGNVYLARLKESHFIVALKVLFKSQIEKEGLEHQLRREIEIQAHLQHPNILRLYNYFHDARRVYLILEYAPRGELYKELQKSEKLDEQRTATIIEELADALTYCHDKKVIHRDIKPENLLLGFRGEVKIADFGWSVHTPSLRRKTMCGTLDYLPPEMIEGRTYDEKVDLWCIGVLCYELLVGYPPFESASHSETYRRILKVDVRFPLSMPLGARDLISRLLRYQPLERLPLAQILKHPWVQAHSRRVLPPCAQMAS

[9] = target: STK33 (human) (UniProt Q9BYT3)
[10] = target: VRK1 (human) (UniProt Q99986)
[11] = target: TXK (human) (UniProt P42681)
[12] = target: JAK2 JH1 JH2 (human) (UniProt O60674)
[13] = target: CDK9 CCNK (human) (UniProt O75909+P50750)
[14] = target: MYLK2 (human) (UniProt Q9H1R3)
Sequence of MYLK2 (human) (Q9H1R3 whole entry, looked up): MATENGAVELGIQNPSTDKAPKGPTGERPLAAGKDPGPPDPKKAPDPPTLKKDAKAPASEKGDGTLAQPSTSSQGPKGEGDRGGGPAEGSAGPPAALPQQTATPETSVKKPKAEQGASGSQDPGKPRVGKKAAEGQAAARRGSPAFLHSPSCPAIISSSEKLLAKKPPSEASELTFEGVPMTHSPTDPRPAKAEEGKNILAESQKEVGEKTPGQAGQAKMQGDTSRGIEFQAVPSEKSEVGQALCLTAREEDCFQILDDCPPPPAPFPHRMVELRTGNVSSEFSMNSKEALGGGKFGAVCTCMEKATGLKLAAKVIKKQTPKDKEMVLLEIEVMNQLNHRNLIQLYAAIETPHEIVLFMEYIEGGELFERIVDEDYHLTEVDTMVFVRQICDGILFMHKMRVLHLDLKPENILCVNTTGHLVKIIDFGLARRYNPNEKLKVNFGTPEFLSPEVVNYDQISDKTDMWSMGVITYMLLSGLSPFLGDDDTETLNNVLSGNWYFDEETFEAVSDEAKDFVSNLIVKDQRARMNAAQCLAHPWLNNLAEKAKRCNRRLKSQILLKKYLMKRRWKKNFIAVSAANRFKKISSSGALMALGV

[15] = target: MAP2K2 (human) (UniProt P36507)
[16] = target: CAMK1 (human) (UniProt Q14012)
Sequence of CAMK1 (human) (Q14012 whole entry, looked up): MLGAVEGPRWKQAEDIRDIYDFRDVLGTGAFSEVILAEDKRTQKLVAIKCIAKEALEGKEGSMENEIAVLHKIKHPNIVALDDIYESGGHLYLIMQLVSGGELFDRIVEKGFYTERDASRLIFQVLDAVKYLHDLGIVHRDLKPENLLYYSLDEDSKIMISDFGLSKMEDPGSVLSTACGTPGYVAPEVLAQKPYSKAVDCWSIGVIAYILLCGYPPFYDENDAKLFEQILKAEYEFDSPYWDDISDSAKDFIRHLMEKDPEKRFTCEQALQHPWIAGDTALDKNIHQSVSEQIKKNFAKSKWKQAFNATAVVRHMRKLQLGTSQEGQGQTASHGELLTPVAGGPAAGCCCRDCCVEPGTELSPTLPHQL

[17] = target: MAP3K5 (human) (UniProt Q99683)
[18] = target: CSK (human) (UniProt P41240)
[19] = target: EPHB1 (human) (UniProt P54762)
[20] = target: PRKCH (human) (UniProt P24723)
[21] = target: MLTK (human) (UniProt Q9NYL2)
[22] = target: CDK2 CCNA2 (human) (UniProt P24941+P20248)
[23] = target: HIPK3 (human) (UniProt Q9H422)
[24] = target: PNCK (human) (UniProt Q6P2M8)
[25] = target: SGK2 (human) (UniProt Q9HBY8)
[26] = target: NEK1 (human) (UniProt Q96PY6)
[27] = target: GRK6 (human) (UniProt P43250)
[28] = target: MST1R (human) (UniProt Q04912)
[29] = target: DYRK1A (human) (UniProt Q13627)
[30] = target: CDK3 CCNE1 (human) (UniProt Q00526+P24864)
[31] = target: BRSK1 (human) (UniProt Q8TDC3)
[32] = target: BMX (human) (UniProt P51813)
[33] = target: EPHA1 (human) (UniProt P21709)
[34] = target: CSNK2A2 (human) (UniProt P19784)
[35] = target: MAPK11 (human) (UniProt Q15759)
[36] = target: DYRK2 (human) (UniProt Q92630)
[37] = target: CSNK1E (human) (UniProt P49674)
Sequence of CSNK1E (human) (P49674 whole entry, looked up): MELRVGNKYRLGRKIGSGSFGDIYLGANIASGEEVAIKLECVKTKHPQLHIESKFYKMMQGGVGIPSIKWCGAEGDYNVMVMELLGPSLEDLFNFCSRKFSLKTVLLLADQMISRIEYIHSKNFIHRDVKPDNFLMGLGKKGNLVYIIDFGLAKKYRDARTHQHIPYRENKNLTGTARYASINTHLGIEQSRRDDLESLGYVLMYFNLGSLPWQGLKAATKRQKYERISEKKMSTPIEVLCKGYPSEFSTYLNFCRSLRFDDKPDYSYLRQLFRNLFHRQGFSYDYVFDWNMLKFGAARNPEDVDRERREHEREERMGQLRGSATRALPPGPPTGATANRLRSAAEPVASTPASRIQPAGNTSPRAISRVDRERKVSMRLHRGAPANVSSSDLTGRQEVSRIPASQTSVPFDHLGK

[38] = target: NEK11 (human) (UniProt Q8NG66)
[39] = target: GRK5 (human) (UniProt P34947)
[40] = target: MAPK9 (human) (UniProt P45984)
Sequence of MAPK9 (human) (P45984 whole entry, looked up): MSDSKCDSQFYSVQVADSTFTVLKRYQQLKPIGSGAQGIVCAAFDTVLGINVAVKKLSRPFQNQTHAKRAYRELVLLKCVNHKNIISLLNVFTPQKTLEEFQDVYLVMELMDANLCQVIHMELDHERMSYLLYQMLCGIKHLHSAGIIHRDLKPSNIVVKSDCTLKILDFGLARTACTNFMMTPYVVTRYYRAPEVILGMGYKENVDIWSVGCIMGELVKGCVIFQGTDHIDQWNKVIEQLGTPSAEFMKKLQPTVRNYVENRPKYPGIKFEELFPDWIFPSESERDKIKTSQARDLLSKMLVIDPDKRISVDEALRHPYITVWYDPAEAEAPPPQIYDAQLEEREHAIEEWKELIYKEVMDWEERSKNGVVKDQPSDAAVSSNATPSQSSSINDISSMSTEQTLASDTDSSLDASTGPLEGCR

[41] = target: CSNK1G1 (human) (UniProt Q9HCP0)
[42] = target: PRKCD (human) (UniProt Q05655)

Sequence of FLT1 (human) (P17948 whole entry, looked up): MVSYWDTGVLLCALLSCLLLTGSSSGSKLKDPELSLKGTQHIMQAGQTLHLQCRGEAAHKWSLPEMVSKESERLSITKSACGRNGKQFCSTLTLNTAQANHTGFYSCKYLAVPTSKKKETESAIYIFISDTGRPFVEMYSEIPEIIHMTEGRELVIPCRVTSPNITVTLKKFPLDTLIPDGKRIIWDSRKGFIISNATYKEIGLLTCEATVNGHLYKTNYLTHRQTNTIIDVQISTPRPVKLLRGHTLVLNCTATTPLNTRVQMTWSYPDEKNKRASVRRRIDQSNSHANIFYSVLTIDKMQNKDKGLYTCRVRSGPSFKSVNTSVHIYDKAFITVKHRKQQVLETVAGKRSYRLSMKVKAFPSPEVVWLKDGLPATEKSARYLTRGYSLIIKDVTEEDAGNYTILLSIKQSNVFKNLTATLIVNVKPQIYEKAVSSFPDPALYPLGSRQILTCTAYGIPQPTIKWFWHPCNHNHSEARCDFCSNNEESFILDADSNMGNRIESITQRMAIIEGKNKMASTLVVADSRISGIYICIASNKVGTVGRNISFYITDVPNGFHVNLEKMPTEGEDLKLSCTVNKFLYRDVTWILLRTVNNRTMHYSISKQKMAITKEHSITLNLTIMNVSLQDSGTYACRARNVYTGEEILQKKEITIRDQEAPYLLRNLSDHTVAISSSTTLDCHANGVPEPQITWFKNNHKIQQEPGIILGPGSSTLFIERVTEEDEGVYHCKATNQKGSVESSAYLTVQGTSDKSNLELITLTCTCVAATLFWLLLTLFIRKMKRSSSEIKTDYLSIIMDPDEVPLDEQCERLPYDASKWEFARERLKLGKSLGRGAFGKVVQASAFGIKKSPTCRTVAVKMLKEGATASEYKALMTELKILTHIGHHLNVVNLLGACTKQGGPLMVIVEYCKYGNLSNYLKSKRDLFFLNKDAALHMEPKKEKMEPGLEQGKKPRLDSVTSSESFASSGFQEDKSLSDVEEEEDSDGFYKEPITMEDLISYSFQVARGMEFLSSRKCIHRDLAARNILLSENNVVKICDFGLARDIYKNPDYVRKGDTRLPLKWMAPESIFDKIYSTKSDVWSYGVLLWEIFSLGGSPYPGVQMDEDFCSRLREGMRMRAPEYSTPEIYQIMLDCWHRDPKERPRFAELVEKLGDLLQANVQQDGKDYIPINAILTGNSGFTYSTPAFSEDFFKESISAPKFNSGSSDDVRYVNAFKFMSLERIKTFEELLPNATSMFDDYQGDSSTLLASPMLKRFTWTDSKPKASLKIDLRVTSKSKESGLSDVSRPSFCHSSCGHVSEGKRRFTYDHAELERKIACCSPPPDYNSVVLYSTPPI
Sequence of INSR (human) (P06213 whole entry, looked up): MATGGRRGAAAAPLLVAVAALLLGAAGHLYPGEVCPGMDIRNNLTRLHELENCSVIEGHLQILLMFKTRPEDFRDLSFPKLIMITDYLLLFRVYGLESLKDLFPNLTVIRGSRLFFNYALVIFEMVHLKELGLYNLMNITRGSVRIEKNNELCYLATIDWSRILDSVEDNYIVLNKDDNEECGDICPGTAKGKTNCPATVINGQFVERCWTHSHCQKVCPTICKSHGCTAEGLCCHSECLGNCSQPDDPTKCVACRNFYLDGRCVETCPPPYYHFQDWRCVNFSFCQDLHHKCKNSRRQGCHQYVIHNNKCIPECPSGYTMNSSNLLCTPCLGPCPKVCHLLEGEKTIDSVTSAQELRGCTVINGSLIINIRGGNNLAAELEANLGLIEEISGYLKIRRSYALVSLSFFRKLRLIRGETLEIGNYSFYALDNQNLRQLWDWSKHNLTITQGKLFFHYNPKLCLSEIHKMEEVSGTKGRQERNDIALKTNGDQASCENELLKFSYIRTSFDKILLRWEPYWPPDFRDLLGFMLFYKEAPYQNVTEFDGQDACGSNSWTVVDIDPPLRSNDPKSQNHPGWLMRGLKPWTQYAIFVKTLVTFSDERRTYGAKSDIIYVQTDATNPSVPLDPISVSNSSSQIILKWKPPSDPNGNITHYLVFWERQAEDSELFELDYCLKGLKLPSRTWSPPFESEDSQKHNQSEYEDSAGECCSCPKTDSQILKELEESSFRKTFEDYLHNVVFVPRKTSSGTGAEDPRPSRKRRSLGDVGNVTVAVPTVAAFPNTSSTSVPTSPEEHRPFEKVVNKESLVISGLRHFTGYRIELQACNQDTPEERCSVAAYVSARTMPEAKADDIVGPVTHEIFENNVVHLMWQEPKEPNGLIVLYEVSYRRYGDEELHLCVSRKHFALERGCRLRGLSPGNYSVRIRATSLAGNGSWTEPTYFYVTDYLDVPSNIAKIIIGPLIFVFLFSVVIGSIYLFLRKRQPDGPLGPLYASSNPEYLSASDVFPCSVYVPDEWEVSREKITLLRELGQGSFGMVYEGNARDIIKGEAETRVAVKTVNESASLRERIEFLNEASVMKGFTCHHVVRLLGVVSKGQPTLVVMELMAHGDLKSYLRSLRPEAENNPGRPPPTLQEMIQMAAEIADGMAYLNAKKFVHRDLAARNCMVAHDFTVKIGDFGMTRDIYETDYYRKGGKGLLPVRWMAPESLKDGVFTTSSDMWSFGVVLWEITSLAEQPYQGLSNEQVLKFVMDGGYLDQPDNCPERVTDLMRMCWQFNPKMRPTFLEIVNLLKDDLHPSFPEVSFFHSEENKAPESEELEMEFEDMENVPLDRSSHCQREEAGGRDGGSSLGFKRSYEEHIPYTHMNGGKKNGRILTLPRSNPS

SMILES: CS(=O)(=O)CCNCc1ccc(-c2ccc3ncnc(Nc4ccc(OCc5cccc(F)c5)c(Cl)c4)c3c2)o1
- residual activity [1]: 105%
- residual activity [2]: 100%
- residual activity [3]: 98.2%
- residual activity [4]: 84%
- residual activity [5]: 84.8%
- residual activity [6]: 93.1%
- residual activity [7]: 95.4% and 99.7%
- residual activity [8]: 90.9%
- residual activity [9]: 94.7%
- residual activity [10]: 101%
- residual activity [11]: 110%
- residual activity [12]: 101%
- residual activity [13]: 103%
- residual activity [14]: 108%
- residual activity [15]: 106%
- residual activity [16]: 102%
- residual activity [17]: 105%
- residual activity [18]: 106%
- residual activity [19]: 104%
- residual activity [20]: 110%
- residual activity [21]: 96.7%
- residual activity [22]: 94.5%
- residual activity [23]: 99.1%
- residual activity [24]: 98.1%
- residual activity [25]: 106%
- residual activity [26]: 71.8%
- residual activity [27]: 101%
- residual activity [28]: 92.2%
- residual activity [29]: 101%
- residual activity [30]: 94.6%
- residual activity [31]: 98.6%
- residual activity [32]: 105%
- residual activity [33]: 99.3%
- residual activity [34]: 101%
- residual activity [35]: 101%
- residual activity [36]: 102%
- residual activity [37]: 99.4%
- residual activity [38]: 107%
- residual activity [39]: 97.2%
- residual activity [40]: 98.1%
- residual activity [41]: 105%
- residual activity [42]: 103%

SMILES: O=C1Nc2ccc(Br)cc2/C1=C\c1cc2c([nH]1)CCCC2
- residual activity [1]: 85.8%
- residual activity [2]: 73.4%
- residual activity [3]: 94.6%
- residual activity [4]: 72%
- residual activity [5]: 67.7%
- residual activity [6]: 93.9%
- residual activity [7]: 77% and 87.9%
- residual activity [8]: 86.3%
- residual activity [9]: 77.3%
- residual activity [10]: 108%
- residual activity [11]: 97.3%
- residual activity [12]: 95.2%
- residual activity [13]: 96.7%
- residual activity [14]: 78.2%
- residual activity [15]: 92.1%
- residual activity [16]: 98.4%
- residual activity [17]: 101%
- residual activity [18]: 98.5%
- residual activity [19]: 85.5%
- residual activity [20]: 97.4%
- residual activity [21]: 87.7%
- residual activity [22]: 90.8%
- residual activity [23]: 96.7%
- residual activity [24]: 98.6%
- residual activity [25]: 101%
- residual activity [26]: 94.6%
- residual activity [27]: 95.8%
- residual activity [28]: 88.3%
- residual activity [29]: 87.1%
- residual activity [30]: 93.2%
- residual activity [31]: 80.8%
- residual activity [32]: 89.9%
- residual activity [33]: 93.1%
- residual activity [35]: 96.8%
- residual activity [36]: 90.8%
- residual activity [37]: 84.3%
- residual activity [38]: 111%
- residual activity [39]: 106%
- residual activity [40]: 99.4%
- residual activity [41]: 102%
- residual activity [42]: 95.6%

SMILES: N#Cc1c[nH]c2c[nH]/c(=N\Cc3cccnc3)cc2/c1=N\c1ccc(F)c(Cl)c1
- residual activity [1]: 85.1%
- residual activity [2]: 88%
- residual activity [3]: 122%
- residual activity [4]: 87.3%
- residual activity [5]: 84.5%
- residual activity [6]: 65.2%
- residual activity [7]: 87.2% and 90.8%
- residual activity [8]: 91.8%
- residual activity [9]: 87.4%
- residual activity [10]: 99.2%
- residual activity [11]: 88.1%
- residual activity [12]: 99%
- residual activity [13]: 97.3%
- residual activity [14]: 96.2%
- residual activity [15]: 105%
- residual activity [16]: 99.1%
- residual activity [17]: 106%
- residual activity [18]: 95.2%
- residual activity [19]: 93.1%
- residual activity [20]: 117%
- residual activity [21]: 106%
- residual activity [22]: 75.1%
- residual activity [23]: 96.5%
- residual activity [24]: 99.8%
- residual activity [25]: 98.5%
- residual activity [26]: 20.5%
- residual activity [27]: 106%
- residual activity [28]: 89.6%
- residual activity [29]: 52.7%
- residual activity [30]: 95.6%
- residual activity [31]: 94.5%
- residual activity [32]: 84%
- residual activity [33]: 94.5%
- residual activity [34]: 75.2%
- residual activity [35]: 102%
- residual activity [36]: 95.5%
- residual activity [37]: 81.8%
- residual activity [38]: 87.1%
- residual activity [40]: 100%
- residual activity [41]: 87%
- residual activity [42]: 95.2%

SMILES: COc1ccc(Cl)cc1NC(=O)Nc1cc(C)nc2ccccc12
- residual activity [1]: 93.2%
- residual activity [2]: 86.2%
- residual activity [3]: 99.1%
- residual activity [4]: 99.8%
- residual activity [5]: 92%
- residual activity [6]: 99.7%
- residual activity [7]: 108% and 97.5%
- residual activity [8]: 99.9%
- residual activity [9]: 103%
- residual activity [10]: 84.6%
- residual activity [11]: 98.9%
- residual activity [12]: 99.6%
- residual activity [13]: 95.9%
- residual activity [14]: 99.3%
- residual activity [15]: 94.1%
- residual activity [16]: 91.7%
- residual activity [17]: 101%
- residual activity [18]: 99.9%
- residual activity [19]: 102%
- residual activity [20]: 88.6%
- residual activity [21]: 99.7%
- residual activity [22]: 98.6%
- residual activity [23]: 99.1%
- residual activity [24]: 98.7%
- residual activity [25]: 96.3%
- residual activity [26]: 96.3%
- residual activity [27]: 105%
- residual activity [28]: 82.4%
- residual activity [29]: 103%
- residual activity [30]: 93.6%
- residual activity [31]: 92.8%
- residual activity [32]: 101%
- residual activity [33]: 88.6%
- residual activity [34]: 96%
- residual activity [35]: 92%
- residual activity [37]: 86.4%
- residual activity [38]: 94.6%
- residual activity [39]: 109%
- residual activity [40]: 105%
- residual activity [41]: 97.9%
- residual activity [42]: 96.3%
